Assays:
[1] = molecular target: T1, streptavidin magnetic particles-desthiobiotin-bound probe molecules-target substance complex (Streptomyces avidinii, UniProt P22629); assay: Dissociation efficiency: target cells released from the capturing carrier by the dissociation agent (quantitative PCR cell count); conditions: 250 μL dissociation agent liquid in PBS, room temperature, 20 minutes; HT-29 cells isolated / cells bound x 100
T1 construct: purchased Invitrogen Dynabeads M-280 Streptavidin
Method: The number of cells was determined by measuring the quantity of genome DNA according to the quantitative PCR method.
(1) Measurement of the Number of Cells Bound to the Capturing Carrier:
50 μL of 0.8 mg/mL solution of proteinase K (protease, manufactured by Qiagen N.V.) dissolved in 10-mM Tris-HCl buffer solution (pH: 8.3) was added to the total amount of the combination of the capturing carrier and the target cells yielded in the below Examples and Comparative Example, and the resultant was reacted by heating at 55° C. for 15 minutes to elute DNA. Subsequently, this solution was heated at 95° C. for 20 minutes to inactivate proteinase K. 20 μL of the resultant DNA solution was added to 30 μL of a quantitative PCR cocktail (Fast Start Taq, manufactured by Roche (Co.)) to carry out quantitative PCR. Other DNA solutions prepared by the same method using predetermined number of cells were used to prepare a calibration curve. A 7500 Real-Time PCR System, manufactured by Applied Biosystems (Co.), was used for the quantitative PCR.
(2) Measurement of the Number of Cells Isolated from the Capturing Carrier: […]
The efficiency of dissociation of (strept) avidin from the biotin derivative was determined according to the following equation: Efficiency of Dissociation (%)=“the number of the cells isolated from the capturing carrier”/“the number of the cells bound to the capturing carrier”×100
1 mg aliquots of the capturing carrier yielded in Preparation Example 2 were added into test tubes. […] The number of the cells bound to the isolated capturing carrier was measured, and the number was 8,500, which was 85% of the number of the cells used for the Example. […]

[2] = molecular target: avidin (Gallus gallus, UniProt P02701); conditions: cited from earlier work
Sequence of avidin (P02701 25-152, species assumed): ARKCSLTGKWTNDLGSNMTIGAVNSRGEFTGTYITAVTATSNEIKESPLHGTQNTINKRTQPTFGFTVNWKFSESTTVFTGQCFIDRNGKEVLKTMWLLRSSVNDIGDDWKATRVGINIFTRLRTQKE

T1 sequence (P22629 25-183, one chain of several): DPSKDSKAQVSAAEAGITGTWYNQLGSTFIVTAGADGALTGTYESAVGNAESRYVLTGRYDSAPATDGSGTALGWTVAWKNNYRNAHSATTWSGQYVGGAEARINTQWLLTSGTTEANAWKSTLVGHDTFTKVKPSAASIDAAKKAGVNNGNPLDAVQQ

| Compound | Dissociation efficiency (%) [1] | binding constant with avidin [2] |
| --- | --- | --- |
| O=C(O)CCCC[C@@H]1SC[C@@H]2NC(=O)N[C@@H]21 [Biotin, biotin] | 3% | 10^15 M |
| BSA-Biotin10: dissociation agent in which ten (10) in average of biotin were bound to one molecule of BSA | 96% |  |
| BSA-Biotin6: dissociation agent in which six (6) in average of biotin were bound to one molecule of BSA | 70% |  |
